{"source": "patent US20100119622A1", "about": "“3H-BENZOOXAZOL-2-ONE MODULATORS OF D2 RECEPTOR AND/OR 5-HT1A RECEPTOR” (AUSPEX PHARMACEUTICALS, INC., priority 2008, published 2010)", "origin": "cited, not measured here", "conditions": "healthy subjects"}
{"smiles": "O=c1[nH]c2cccc(N3CCN(Cc4cccc(-c5ccccc5)c4)CC3)c2o1", "note": "[Bifeprunox, 7-[4-[(3-Phenylphenyl)methyl]piperazin-1-yl]-3H-benzooxazol-2-one]", "values": [{"measurement": "elimination half-life", "value": 14, "unit": "h"}]}
